Values quoted from earlier work in US7141428B2 (priority 2000, dated 2006).

Assays:
growth cone collapse = details: collapse induced by activation of Rho or ROK
[1] = biological target: Rho kinase (Rho-associated protein kinase, p160ROCK) (Homo sapiens, UniProt Q13464)
Rho kinase (Rho-associated protein kinase, p160ROCK), sequence (Q13464 whole entry, looked up): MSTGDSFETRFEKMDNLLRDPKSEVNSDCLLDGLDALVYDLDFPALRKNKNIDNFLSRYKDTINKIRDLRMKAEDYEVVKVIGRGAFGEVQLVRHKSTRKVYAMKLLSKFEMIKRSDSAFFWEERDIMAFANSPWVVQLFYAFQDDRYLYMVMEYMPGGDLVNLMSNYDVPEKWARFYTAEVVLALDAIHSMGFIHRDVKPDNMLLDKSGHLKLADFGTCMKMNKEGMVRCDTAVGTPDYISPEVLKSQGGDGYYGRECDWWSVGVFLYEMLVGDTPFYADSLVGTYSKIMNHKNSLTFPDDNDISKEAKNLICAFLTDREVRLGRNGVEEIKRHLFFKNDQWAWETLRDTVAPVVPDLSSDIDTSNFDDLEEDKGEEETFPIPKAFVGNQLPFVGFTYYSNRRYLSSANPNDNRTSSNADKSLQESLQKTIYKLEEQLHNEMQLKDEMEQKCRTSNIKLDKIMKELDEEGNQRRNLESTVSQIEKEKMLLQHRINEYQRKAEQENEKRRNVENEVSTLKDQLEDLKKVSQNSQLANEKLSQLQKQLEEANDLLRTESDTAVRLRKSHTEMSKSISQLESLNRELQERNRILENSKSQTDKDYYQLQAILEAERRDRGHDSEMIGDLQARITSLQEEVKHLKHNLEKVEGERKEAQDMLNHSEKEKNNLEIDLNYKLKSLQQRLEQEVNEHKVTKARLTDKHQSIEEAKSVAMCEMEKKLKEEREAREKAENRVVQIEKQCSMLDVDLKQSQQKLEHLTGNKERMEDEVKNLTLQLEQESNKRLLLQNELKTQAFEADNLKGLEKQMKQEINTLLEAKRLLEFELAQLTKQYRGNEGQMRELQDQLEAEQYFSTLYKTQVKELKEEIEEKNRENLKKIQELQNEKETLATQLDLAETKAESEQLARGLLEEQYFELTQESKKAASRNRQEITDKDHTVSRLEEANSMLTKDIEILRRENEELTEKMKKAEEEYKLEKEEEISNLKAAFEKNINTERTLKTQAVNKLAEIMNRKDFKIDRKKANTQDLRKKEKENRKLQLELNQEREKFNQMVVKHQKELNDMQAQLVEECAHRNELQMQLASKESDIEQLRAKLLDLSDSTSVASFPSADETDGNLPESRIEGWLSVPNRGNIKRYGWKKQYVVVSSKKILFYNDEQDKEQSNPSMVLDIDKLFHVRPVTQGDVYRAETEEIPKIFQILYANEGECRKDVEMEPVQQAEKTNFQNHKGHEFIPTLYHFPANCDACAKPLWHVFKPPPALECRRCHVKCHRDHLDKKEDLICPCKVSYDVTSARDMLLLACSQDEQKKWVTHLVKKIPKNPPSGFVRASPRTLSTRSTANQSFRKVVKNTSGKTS

For C[C@@H](N)[C@H]1CC[C@H](C(=O)Nc2ccncc2)CC1 [Y-27632, (R)-(+)-trans-N-(4-pyridyl)-4-(1-aminoethyl)-cyclohexanecarboamide], the “prevention of growth cone collapse” value (growth cone collapse) is given as “can be prevented” and the “concentration at which Rho kinase is inhibited” value [1] is given as “sub-micromolar”.
